Assay results taken from patent US10941157B2, “Pesticidal compositions and uses thereof” (Gilead Apollo, LLC, priority 2015, dated 2021).
In brackets after ≈: the same amount, converted by molar mass. Where two headings read alike, the source gives them in different places.

How the values were obtained:
Assay type in all cases: cell-based
Botrtyis cinerea (Bc) = experiment: In vitro pathogen growth inhibition assay, Bc; settings: 48 h
Summary of the method: (§1)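 Value reported is the compound concentration reaching ≥90% growth inhibition, from OD readings at 24 and 48 h after blank subtraction, confirmed visually. Inoculum was spores diluted in 17% V8 medium, except Rs, using 1.5 mm mycelial plugs in ¼ PDB; actual compound concentration corrected via OD600.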

[1] = system: Collectotrichum graminicola (Cg); experiment: In vitro pathogen growth inhibition assay, Cg; settings: 48 h
Summary of the method: as §1

Diplodia maydis (Dm) = experiment: In vitro pathogen growth inhibition assay, Dm; settings: Stenocarpella maydis, 48 h
Summary of the method: (§2)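 Spores in 17% V8 liquid medium, or 1.5 mm Rs mycelial plugs in ¼ PDB, incubated with compound; final concentration checked by OD600 for precipitation. OD readings at 24 and 48 h, blank-subtracted, plus visual ratings; value is concentration giving ≥90% growth inhibition.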

[2] = system: Fusarium moniliforme (Fm); experiment: In vitro pathogen growth inhibition assay, Fm; settings: Fusarium verticillioides
Summary of the method: as §1

[3] = system: Fusarium virguliforme (Fv); experiment: In vitro pathogen growth inhibition assay, Fv
Summary of the method: as §2

[4] = system: Phytophthora capsici (Pc); experiment: In vitro pathogen growth inhibition assay, Pc; settings: 48 h
Summary of the method: as §2

Rhizoctonia solani (Rs) = experiment: In vitro pathogen growth inhibition assay, Rs (mycelial plugs); settings: Rhizoctonia solani, 48 h, mycelial plugs
Summary of the method: as §2

Septoria tritici (St) = experiment: In vitro pathogen growth inhibition assay, St; settings: Zymoseptoria tritici, 48 h
Summary of the method: as §1

[5] = ≥90% growth inhibition, 48 hours, vs 2% DMSO control, read-out: Compound Concentration (ppm) sufficient for ≥90% inhibition of Bc
[6] = ≥90% growth inhibition, 48 hours, vs 2% DMSO control, read-out: Compound Concentration (ppm) sufficient for ≥90% inhibition of Cg
[7] = ≥90% growth inhibition, 48 hours, vs 2% DMSO control, read-out: Compound Concentration (ppm) sufficient for ≥90% inhibition of Dm
[8] = ≥90% growth inhibition, 48 hours, vs 2% DMSO control, read-out: Compound Concentration (ppm) sufficient for ≥90% inhibition of Fm
[9] = ≥90% growth inhibition, 48 hours, vs 2% DMSO control, read-out: Compound Concentration (ppm) sufficient for ≥90% inhibition of Fv
[10] = ≥90% growth inhibition, 48 hours, vs 2% DMSO control, read-out: Compound Concentration (ppm) sufficient for ≥90% inhibition of Pc
[11] = ≥90% growth inhibition, 48 hours, vs 2% DMSO control, read-out: Compound Concentration (ppm) sufficient for ≥90% inhibition of Rs
[12] = ≥90% growth inhibition, 48 hours, vs 2% DMSO control, read-out: Compound Concentration (ppm) sufficient for ≥90% inhibition of St
[13] = ≥90% inhibition, 48 hours vs 2% DMSO control, read-out: Compound Concentration (ppm) sufficient for ≥90% inhibition of growth, Bc
[14] = ≥90% inhibition, 48 hours vs 2% DMSO control, read-out: Compound Concentration (ppm) sufficient for ≥90% inhibition of growth, Cg
[15] = ≥90% inhibition, 48 hours vs 2% DMSO control, read-out: Compound Concentration (ppm) sufficient for ≥90% inhibition of growth, Dm
[16] = ≥90% inhibition, 48 hours vs 2% DMSO control, read-out: Compound Concentration (ppm) sufficient for ≥90% inhibition of growth, Fm
[17] = ≥90% inhibition, 48 hours vs 2% DMSO control, read-out: Compound Concentration (ppm) sufficient for ≥90% inhibition of growth, Fv
[18] = ≥90% inhibition, 48 hours vs 2% DMSO control, read-out: Compound Concentration (ppm) sufficient for ≥90% inhibition of growth, Pc
[19] = ≥90% inhibition, 48 hours vs 2% DMSO control, read-out: Compound Concentration (ppm) sufficient for ≥90% inhibition of growth, Rs
[20] = ≥90% inhibition, 48 hours vs 2% DMSO control, read-out: Compound Concentration (ppm) sufficient for ≥90% inhibition of growth, St

| IC90 (Botrtyis cinerea (Bc); [5]) | IC90 [1, 6] | IC90 (Diplodia maydis (Dm); [7]) | IC90 [2, 8] | IC90 [3, 9] | IC90 [4, 10] | IC90 (Rhizoctonia solani (Rs); [11]) | IC90 (Septoria tritici (St); [12]) | IC90 (Botrtyis cinerea (Bc); [13]) | IC90 [1, 14] | IC90 (Diplodia maydis (Dm); [15]) | IC90 [2, 16] | IC90 [3, 17] | IC90 [4, 18] | IC90 (Rhizoctonia solani (Rs); [19]) | IC90 (Septoria tritici (St); [20]) | SMILES |
| --- | --- | --- | --- | --- | --- | --- | --- | --- | --- | --- | --- | --- | --- | --- | --- | --- |
| 2 µg/mL (≈ 3.38 µM) | 10 µg/mL (≈ 16.9 µM) | 10 µg/mL (≈ 16.9 µM) | 0.4 µg/mL (≈ 0.676 µM) | 2 µg/mL (≈ 3.38 µM) | > 50 µg/mL | 2 µg/mL (≈ 3.38 µM) | > 50 µg/mL |  |  |  |  |  |  |  |  | COc1ccccc1[C@H](Cn1c(=O)n(C(C)(C)C(=O)N2CCCC2)c(=O)c2c(C)c(-n3nccn3)sc21)OCCC#N [Compound I-196] |
| 2 µg/mL (≈ 3.34 µM) | 2 µg/mL (≈ 3.34 µM) | ≥ 10 µg/mL | 2 µg/mL (≈ 3.34 µM) | 2 µg/mL (≈ 3.34 µM) | > 50 µg/mL | 10 µg/mL (≈ 16.7 µM) | > 50 µg/mL |  |  |  |  |  |  |  |  | COCCO[C@@H](Cn1c(=O)n(C(C)(C)C(=O)N2CCCC2)c(=O)c2c(C)c(-n3nccn3)sc21)c1cc(F)ccc1C [Compound I-249] |
| 0.4 µg/mL (≈ 0.696 µM) | 2 µg/mL (≈ 3.48 µM) | 2 µg/mL (≈ 3.48 µM) | 0.08 µg/mL (≈ 0.139 µM) | 0.4 µg/mL (≈ 0.696 µM) | > 50 µg/mL | 0.4 µg/mL (≈ 0.696 µM) | > 50 µg/mL |  |  |  |  |  |  |  |  | CCNC(=O)[C@H](C)n1c(=O)c2c(C)c(C(=O)OCC)sc2n(C[C@H](OCCC#N)c2cc(F)ccc2OC)c1=O [Compound I-305] |
| 0.4 µg/mL (≈ 0.654 µM) | 2 µg/mL (≈ 3.27 µM) | 50 µg/mL (≈ 81.7 µM) | 0.08 µg/mL (≈ 0.131 µM) | 0.4 µg/mL (≈ 0.654 µM) | > 50 µg/mL | 2 µg/mL (≈ 3.27 µM) | > 50 µg/mL |  |  |  |  |  |  |  |  | COc1ccc(F)cc1[C@](C)(Cn1c(=O)n(C(C)(C)C(=O)NC(C)C)c(=O)c2c(C)c(-n3nccn3)sc21)OCCC#N [Compound I-273] |
| 2 µg/mL (≈ 3.4 µM) | 10 µg/mL (≈ 17 µM) | > 10 µg/mL | 0.4 µg/mL (≈ 0.68 µM) | ≥ 10 µg/mL | > 50 µg/mL | > 50 µg/mL | > 50 µg/mL |  |  |  |  |  |  |  |  | CCOC(=O)c1sc2c(c1C)c(=O)n([C@@H](C)C(=O)NC(C)C)c(=O)n2C[C@H](OCCC#N)c1cc(F)ccc1OC [Compound I-219] |
| > 50 µg/mL | 50 µg/mL (≈ 84.1 µM) | > 50 µg/mL | 2 µg/mL (≈ 3.36 µM) | 10 µg/mL (≈ 16.8 µM) | > 50 µg/mL | > 50 µg/mL | > 50 µg/mL |  |  |  |  |  |  |  |  | COc1ccc(F)cc1[C@H](Cn1c(=O)n([C@H](C)C(=O)N2CCCC2)c(=O)c2c(C)c(-n3cccn3)sc21)OCCC#N [Compound I-314] |
|  |  |  |  |  |  |  |  | 2 µg/mL (≈ 3.25 µM) | 2 µg/mL (≈ 3.25 µM) | ≥ 2 µg/mL | 0.4 µg/mL (≈ 0.65 µM) | ≥ 0.4 µg/mL | ≥ 50 µg/mL | ≥ 2 µg/mL | ≥ 10 µg/mL | COc1ccc(F)cc1[C@H](Cn1c(=O)n(C(C)(C)C(=O)NC(C)C)c(=O)c2c(C)c(-n3cccn3)sc21)OCC(C)(C)O [Compound I-137] |
|  |  |  |  |  |  |  |  | 2 µg/mL (≈ 3.43 µM) | ≥ 10 µg/mL | 10 µg/mL (≈ 17.1 µM) | 2 µg/mL (≈ 3.43 µM) | 2 µg/mL (≈ 3.43 µM) | > 50 µg/mL | ≥ 50 µg/mL | > 50 µg/mL | COc1ccc(F)cc1[C@H](Cn1c(=O)n(C(C)(C)C(=O)NCC#N)c(=O)c2c(C)c(-n3nccn3)sc21)OC(C)C [Compound I-160] |
|  |  |  |  |  |  |  |  | 2 µg/mL (≈ 3.33 µM) | 10 µg/mL (≈ 16.6 µM) | 10 µg/mL (≈ 16.6 µM) | 0.4 µg/mL (≈ 0.666 µM) | 0.4 µg/mL (≈ 0.666 µM) | 50 µg/mL (≈ 83.2 µM) | 2 µg/mL (≈ 3.33 µM) | 50 µg/mL (≈ 83.2 µM) | COCCO[C@@H](Cn1c(=O)n(C(C)C(=O)N2CCCC2)c(=O)c2c(C)c(-n3nccn3)sc21)c1cc(F)ccc1OC (some centres unmarked) [Compound I-139] |
|  |  |  |  |  |  |  |  | 2 µg/mL (≈ 3.26 µM) | 10 µg/mL (≈ 16.3 µM) | ≥ 10 µg/mL | 0.4 µg/mL (≈ 0.652 µM) | 2 µg/mL (≈ 3.26 µM) | > 50 µg/mL | ≥ 2 µg/mL | 50 µg/mL (≈ 81.5 µM) | COc1ccc(F)cc1[C@H](Cn1c(=O)n(C(C)(C)C(=O)N2CCCC2)c(=O)c2c(C)c(-n3cccn3)sc21)OC[C@@H](C)O [Compound I-135] |
